Experimental data taken from patent US20240373847A1, “HERBICIDAL MALONAMIDES” (BASF SE, priority 2021, published 2024).

Legend:
Format in all cases: in vivo
[1] = tested on: Setaria viridis (SETVI); experiment: greenhouse test, pre-emergence treatment; conditions: 0.250 kg/ha, pre-emergence method; scale from 0 to 100
Description: (§1) The culture containers used were plastic flowerpots containing loamy sand with approximately 3.0% of humus as the substrate. The seeds of the test plants were sown separately for each species.
(§2) For the pre-emergence treatment, the active ingredients, which had been suspended or emulsified in water, were applied directly after sowing by means of finely distributing nozzles. The containers were irrigated gently to promote germination and growth and subsequently covered with transparent plastic hoods until the test plants had rooted.
(§3) This cover caused uniform germination of the test plants, unless this had been impaired by the active ingredients.
(§4) Depending on the species, the test plants were kept at 10-25° C. or 20-35° C., respectively.
(§5) The test period extended over 2 to 4 weeks. During this time, the test plants were tended, and their response to the individual treatments was evaluated.
(§6) Evaluation was carried out using a scale from 0 to 100. 100 means no emergence of the test plants, or complete destruction of at least the aerial moieties, and 0 means no damage, or normal course of growth. A good herbicidal activity is given at values of 70 to <90 and a very good herbicidal activity is given at values of 90 to 100.
(§7) The test plants used in the greenhouse experiments were of the following species: […]

[2] = tested on: Amaranthus retroflexus (AMARE); experiment: greenhouse test, pre-emergence treatment; conditions: pre-emergence method, scale from 0 to 100
Description: as §1, §2, §3, §4, §5, §6, §7

[3] = tested on: Echinocloa crus-galli (ECHCG); experiment: greenhouse test, post-emergence treatment; conditions: 0.500 kg/ha, post-emergence method; scale from 0 to 100
Description: as §1
(§8) For the post-emergence treatment, the test plants were first grown to a height of 3 to 15 cm, depending on the plant habit, and only then treated with the active ingredients which had been suspended or emulsified in water. For this purpose, the test plants were either sown directly and grown in the same containers, or they were first grown separately as seedlings and transplanted into the test containers a few days prior to treatment.
as §4, §5, §6, §7

[4] = tested on: Echinocloa crus-galli (ECHCG); experiment: greenhouse test, pre-emergence treatment; conditions: 0.125 kg/ha, pre-emergence method; scale from 0 to 100
Description: as §1, §2, §3, §4, §5, §6, §7

[5] = tested on: Abutilon theophrasti (ABUTH); experiment: greenhouse test, pre-emergence treatment; conditions: 0.125 kg/ha, pre-emergence method; scale from 0 to 100
Description: as §1, §2, §3, §4, §5, §6, §7

[6] = tested on: Setaria faberi (SETFA); experiment: greenhouse test, pre-emergence treatment; conditions: 0.125 kg/ha, pre-emergence method; scale from 0 to 100
Description: as §1, §2, §3, §4, §5, §6, §7

[7] = tested on: Apera spica-venti (APESV); experiment: greenhouse test, pre-emergence treatment; conditions: 0.125 kg/ha, pre-emergence method; scale from 0 to 100
Description: as §1, §2, §3, §4, §5, §6, §7

[8] = tested on: Setaria viridis (SETVI); experiment: greenhouse test, post-emergence treatment; conditions: 1.000 kg/ha, post-emergence method; scale from 0 to 100
Description: as §1, §8, §4, §5, §6, §7

[9] = tested on: Digitaria sanguinalis (DIGSA); experiment: greenhouse test, pre-emergence treatment; conditions: 1.000 kg/ha, pre-emergence method; scale from 0 to 100
Description: as §1, §2, §3, §4, §5, §6, §7

[10] = tested on: Lolium multiflorum (LOLMU); experiment: greenhouse test, pre-emergence treatment; conditions: 1.000 kg/ha, pre-emergence method; scale from 0 to 100
Description: as §1, §2, §3, §4, §5, §6, §7

[11] = tested on: Amaranthus retroflexus (AMARE); experiment: greenhouse test, post-emergence treatment; conditions: 1.000 kg/ha, post-emergence method; scale from 0 to 100
Description: as §1, §8, §4, §5, §6, §7

COC(=O)C1C=CC(NC(=O)C(C)C(=O)Nc2cc(F)cc(F)c2)C1 (mixture of isomers) [I.153]
herbicidal activity against SETVI [1]: very good herbicidal activity (a very good herbicidal activity is given at values of 90 to 100)

COC(=O)CC(C)NC(=O)C(C)C(=O)Nc1cc(Cl)cc(Cl)c1 (stereo not shown) [I.1]
herbicidal activity against AMARE ([2]; 0.500 kg/ha): good herbicidal activity (A good herbicidal activity is given at values of 70 to <90)

COC(=O)CC(C)NC(=O)C(C(=O)Nc1cc(Cl)cc(Cl)c1)C1CC1 (stereo not shown) [I.3]
herbicidal activity against ECHCG [3]: good herbicidal activity (A good herbicidal activity is given at values of 70 to <90)

CCS(=O)(=O)NC(=O)CC(C)NC(=O)C(C)C(=O)Nc1cc(C)cc(F)c1 (stereo not shown) [I.14]
herbicidal activity against AMARE ([2]; 0.125 kg/ha): very good herbicidal activity (a very good herbicidal activity is given at values of 90 to 100)
herbicidal activity against ECHCG [4]: good herbicidal activity (A good herbicidal activity is given at values of 70 to <90)

CONC(=O)CC(C)NC(=O)C(C)C(=O)Nc1cc(F)cc(F)c1 (stereo not shown) [I.79]
herbicidal activity against ABUTH [5]: good herbicidal activity (A good herbicidal activity is given at values of 70 to <90)

CCC(C(=O)Nc1cc(Cl)cc(Cl)c1)C(=O)N[C@H]1C=C[C@@H](C(=O)OC)C1 (stereo partly drawn) [I.90, methyl (1S,4R)-4-[2-[(3,5-dichlorophenyl)carbamoyl]butanoylamino]cyclopent-2-ene-1-carboxylate]
herbicidal activity against SETFA [6]: good herbicidal activity (A good herbicidal activity is given at values of 70 to <90)

CCc1cccc(NC(=O)C(CC)C(=O)NC(C)CCC(=O)OC)c1 (stereo not shown) [I.117]
herbicidal activity against APESV [7]: very good herbicidal activity (a very good herbicidal activity is given at values of 90 to 100)

CCC(C(=O)Nc1cccc(OC(F)(F)F)c1)C(=O)NC(C)CCC(=O)O (stereo not shown) [I.128]
herbicidal activity against AMARE ([2]; 1.000 kg/ha): very good herbicidal activity (a very good herbicidal activity is given at values of 90 to 100)

CCC(C(=O)Nc1cc(C)cc(F)c1)C(=O)NC(C)CCC(=O)O (stereo not shown) [I.136]
herbicidal activity against SETVI [8]: good herbicidal activity (A good herbicidal activity is given at values of 70 to <90)

CCC(C(=O)Nc1cccc(F)c1)C(=O)N[C@H]1C=C[C@@H](C(=O)O)C1 (stereo partly shown) [I.138]
herbicidal activity against DIGSA [9]: good herbicidal activity (A good herbicidal activity is given at values of 70 to <90)
herbicidal activity against LOLMU [10]: good herbicidal activity (A good herbicidal activity is given at values of 70 to <90)

CCC(C(=O)Nc1cc(F)cc(F)c1)C(=O)NC(C)CC(=O)O (stereo not shown) [I.144]
herbicidal activity against AMARE [11]: good herbicidal activity (A good herbicidal activity is given at values of 70 to <90)
